According to patent publication US6150413A, “Triaromatic compounds and pharmaceutical/cosmetic compositions comprised thereof” (Centre International de Recherches Dermatologiques, priority 1997, dated 2000):

Tests used:
RAR [1] = assay: mouse-ear oedema induced by topical application of CD270 (test to identify RAR-antagonist molecules); assay type: in vivo; conditions: for % of inhibition of the agonist activity: mouse-ear oedema, topical, agonist CD270 0.01% w/v; for RAR-antagonist classification from the mouse-ear oedema table: results in words
From the text: (§1) The compounds according to the invention show activity in the test of differentiation of mouse embryonic teratocarcinoma cells (F9) (Cancer Research 43, p. 5268, 1983) and/or in the test of inhibition of ornithine decarboxylase after induction with TPA in mice (Cancer Research 38, p. 793-801, 1978). These tests show the activities of these compounds in the fields of cell differentiation and proliferation respectively. In the cell (F9) differentiation test, it is possible to evaluate an agonist activity as an antagonist activity to retinoic acid receptors. […] These compounds are thus also active in a test which consists in identifying RAR-antagonist molecules, as described in French patent application No. 95/07302 filed on Jun. 19, 1995 by the Applicant. This test comprises the following steps: (i) a sufficient amount of an RAR-agonist molecule is applied topically to an area of the skin of a mammal, (ii) a molecule capable of showing RAR-antagonist activity is administered systemically or topically to this same mammal or to this same area of the mammal's skin, before, during or after step (i), and (iii) the response on the area of the mammal's skin thus treated is evaluated. Thus, the response to a topical application to a mammal's ear of an RAR-agonist molecule, which corresponds to an increase in the thickness of that ear, can be inhibited by the systemic or topical administration of an RAR-antagonist molecule.
Results of a test to identify RAR-antagonist molecules, as described in French patent application No. 95/07302 filed on Jun. 19, 1995 by the Applicant.
The test used is that of mouse-ear oedema induced by topical application of 2-(5,6,7,8-tetrahydro-5,5,8,8-tetramethyl-2-naphthyl)-6-benzo[b]-thiophenecarboxylic acid (CD270) at a concentration of 0.01% on a weight per unit volume basis.
The response can be inhibited by the topical administration of a dose (expressed in % on a weight per unit volume basis) of compound X.

RAR [2] = assay: differentiation of mouse embryonic teratocarcinoma cells (F9), inhibition of the activity of agonist CD2043 (RAR-antagonist identification); assay type: cell-based; conditions: for % of inhibition of the agonist activity: F9 cells, compound 10^-5 M, agonist CD2043 10^-8 M; for RAR-antagonist classification from the F9 table: results in words
From the text: as §1
Results of a test of differentiation of mouse embryonic teratocarcinoma cells (F9) in order to identify RAR-antagonist molecules, described in Cancer Research 43, p. 5268, 1983.
In the test used, a compound is considered as being an RAR antagonist if it lowers the activity of the agonist (4-[(5,5,8,8-tetramethyl-5,6,7,8-tetrahydro-2-naphthylamino)methyl]benzoicacid, referred to as compound CD2043) on the morphology and secretion of the plasminogen activator by the F9 cells. In this test, the compounds are tested at 10^-5 M and the CD2043 is tested at 10^-8 M.

With `CC1(C)CCC(C)(C)c2cc(-c3cc4ccc(C(=O)O)cc4s3)ccc21` [CD270, 2-(5,6,7,8-tetrahydro-5,5,8,8-tetramethyl-2-naphthyl)-6-benzo[b]-thiophenecarboxylic acid, reference compound] the “inflammation / thickness of the mouse's ear” value (RAR [1]; topical CD270, 0.01% w/v, mouse ear) was “causes an inflammation which is characterized by an increase in the thickness of the mouse's ear”.

In the case of `O=C(O)c1ccc(C#C/C=C/c2ccccc2-c2ccccc2)cc1` [Example 1, 4-(4-Biphenyl-2-ylbut-3-en-(E)-1-ynyl)benzoic acid], the “% of inhibition of the agonist activity” value (RAR [2]) is reported as 100%, the “RAR-antagonist classification from the F9 table” value (RAR [2]) is reported as “RAR-antagonist compounds” and the “% of inhibition of the agonist activity” value (RAR [1]; dose 0.01% w/v) is reported as 78%. The “RAR-antagonist classification from the mouse-ear oedema table” value (RAR [1]) was “RAR-antagonist compounds”.

In the case of `Cc1ccc(-c2ccccc2/C=C/C#Cc2ccc(C(=O)O)cc2)cc1` [Example 2, 4-[4-(4'-Methylbiphenyl-2-yl)but-3-en-(E)-1-ynyl]benzoic acid], the “% of inhibition of the agonist activity” value (RAR [2]) is reported as 94%, the “RAR-antagonist classification from the F9 table” value (RAR [2]) is reported as “RAR-antagonist compounds” and the “% of inhibition of the agonist activity” value (RAR [1]; dose 0.01% w/v) is reported as 85%. For the same compound, the “RAR-antagonist classification from the mouse-ear oedema table” value (RAR [1]) was “RAR-antagonist compounds”.

`Cc1ccc(-c2cccc(F)c2/C=C/C#Cc2ccc(C(=O)O)cc2)cc1` [Example 11, 4-[4-(3-Fluoro-4'-methylbiphenyl-2-yl)but-3-en-(E)-1-ynyl]benzoic acid] was tested, and the “% of inhibition of the agonist activity” value (RAR [2]) was 96%, the “RAR-antagonist classification from the F9 table” value (RAR [2]) was “RAR-antagonist compounds” and the “% of inhibition of the agonist activity” value (RAR [1]; dose 0.1% w/v) was 99%. The “RAR-antagonist classification from the mouse-ear oedema table” value (RAR [1]) was “RAR-antagonist compounds”.

In the case of `Cc1ccc(-c2ccc(C)cc2/C=C/C#Cc2ccc(C(=O)O)cc2)cc1` [Example 12, 4-[4-(4,4'-Dimethylbiphenyl-2-yl)but-3-en-1-ynyl]benzoic acid], the “% of inhibition of the agonist activity” value (RAR [2]) is reported as 87%, the “RAR-antagonist classification from the F9 table” value (RAR [2]) is reported as “RAR-antagonist compounds” and the “% of inhibition of the agonist activity” value (RAR [1]; dose 0.01% w/v) is reported as 45%. For the same compound, the “RAR-antagonist classification from the mouse-ear oedema table” value (RAR [1]) was “RAR-antagonist compounds”.

For `Cc1ccc(-c2c(C)cccc2/C=C/C#Cc2ccc(C(=O)O)cc2)cc1` [Example 14, 4-[4-(6,4'-Dimethylbiphenyl-2-yl)but-3-en-(E)-1-ynyl]benzoic acid], the “% of inhibition of the agonist activity” value (RAR [2]) was 95% and the “% of inhibition of the agonist activity” value (RAR [1]; dose 0.1% w/v) was 93%.

With `COCOc1ccc(-c2ccc(C)cc2)c(/C=C/C#Cc2ccc(C(=O)O)cc2)c1` [Example 15, 4-[4-(4-Methoxymethoxy-4'-methylbiphenyl-2-yl)but-3-en-(E)-1-ynyl]benzoic acid] the “% of inhibition of the agonist activity” value (RAR [2]) was 93% and the “% of inhibition of the agonist activity” value (RAR [1]; dose 0.01% w/v) was 43%.

With `COCOc1ccc(/C=C/C#Cc2ccc(C(=O)O)cc2)c(-c2ccc(C)cc2)c1` [Example 16, 4-[4-(5-Methoxymethoxy-4'-methylbiphenyl-2-yl)but-3-en-(E)-1-ynyl]benzoic acid] the “% of inhibition of the agonist activity” value (RAR [2]) was 92% and the “% of inhibition of the agonist activity” value (RAR [1]; dose 0.01% w/v) was 34%.

In the case of `COCOc1cccc(/C=C/C#Cc2ccc(C(=O)O)cc2)c1-c1ccc(C)cc1` [Example 17, 4-[4-(6-Methoxymethoxy-4'-methylbiphenyl-2-yl)but-3-en-(E)-1-ynyl]benzoic acid], the “% of inhibition of the agonist activity” value (RAR [2]) is reported as 98% and the “% of inhibition of the agonist activity” value (RAR [1]; dose 0.1% w/v) is reported as 94%.

For `C/C(=C\C#Cc1ccc(C(=O)O)cc1)c1ccccc1-c1ccc(C)cc1` [Example 18, 4-[4-(4'-Methylbiphenyl-2-yl)pent-3-en-(E)-1-ynyl]benzoic acid], the “% of inhibition of the agonist activity” value (RAR [2]) was 69% and the “% of inhibition of the agonist activity” value (RAR [1]; dose 0.1% w/v) was 41%.

For `COCOc1ccc(-c2ccccc2/C=C/C#Cc2ccc(C(=O)O)cc2)cc1` [Example 28, 4-[4-(4'-Methoxymethoxybiphenyl-2-yl)but-3-en-(E)-1-ynyl]benzoic acid], the “% of inhibition of the agonist activity” value (RAR [2]) was 96%, the “RAR-antagonist classification from the F9 table” value (RAR [2]) was “RAR-antagonist compounds” and the “% of inhibition of the agonist activity” value (RAR [1]; dose 0.01% w/v) was 31%. The “RAR-antagonist classification from the mouse-ear oedema table” value (RAR [1]) was “RAR-antagonist compounds”.

`COc1ccc(/C=C/C#Cc2ccc(C(=O)O)cc2)c(-c2ccc(C)cc2)c1` [Example 42, 4-[4-(4'-Methyl-5-methoxybiphenyl-2-yl)but-3-en-(E)-1-ynyl]benzoic acid] was tested, and the “% of inhibition of the agonist activity” value (RAR [2]) was 91% and the “% of inhibition of the agonist activity” value (RAR [1]; dose 0.01% w/v) was 26%.

For `CCCOc1ccc(/C=C/C#Cc2ccc(C(=O)O)cc2)c(-c2ccc(C)cc2)c1` [Example 43, 4-[4-(4'-Methyl-5-propoxybiphenyl-2-yl)but-3-en-(E)-1-ynyl]benzoic acid], the “% of inhibition of the agonist activity” value (RAR [2]) was 84% and the “% of inhibition of the agonist activity” value (RAR [1]; dose 0.01% w/v) was 24%.

In the case of `Cc1ccc(-c2c(O)cccc2/C=C/C#Cc2ccc(C(=O)O)cc2)cc1` [Example 44, 4-[4-(4'-Methyl-6-hydroxybiphenyl-2-yl)but-3-en-(E)-1-ynyl]benzoic acid], the “% of inhibition of the agonist activity” value (RAR [2]) is reported as 97% and the “% of inhibition of the agonist activity” value (RAR [1]; dose 0.1% w/v) is reported as 54%.

`COc1cccc(/C=C/C#Cc2ccc(C(=O)O)cc2)c1-c1ccc(C)cc1` [Example 45, 4-[4-(4'-Methyl-6-methoxybiphenyl-2-yl)but-3-en-(E)-1-ynyl]benzoic acid] was tested, and the “% of inhibition of the agonist activity” value (RAR [2]) was 95% and the “% of inhibition of the agonist activity” value (RAR [1]; dose 0.1% w/v) was 99%.

In the case of `COCOc1cccc(-c2ccc(C)cc2)c1/C=C/C#Cc1ccc(C(=O)O)cc1` [Example 52, 4-[4-(3-Methoxymethoxy-4'-methylbiphenyl-2-yl)but-3-en-(E)-1-ynyl]benzoic acid], the “% of inhibition of the agonist activity” value (RAR [2]) is reported as 97%, the “RAR-antagonist classification from the F9 table” value (RAR [2]) is reported as “RAR-antagonist compounds” and the “% of inhibition of the agonist activity” value (RAR [1]; dose 0.1% w/v) is reported as 97%. The “RAR-antagonist classification from the mouse-ear oedema table” value (RAR [1]) was “RAR-antagonist compounds”.
